Data reported in patent US20120129811A1, “TRICYCLIC INHIBITORS OF PRO-MATRIX METALLOPROTEINASE ACTIVATION” (priority 2010, published 2012).
Where a name gives a salt, the structure may show the parent alone.

What was measured:
[1] = molecular target: T1, proMMP9(20-445;ΔFnII) (SEQ ID NO:6) (Homo sapiens, UniProt P14780, DEL216-390); test: ThermoFluor binding assay with proMMP9(20-445;ΔFnII)
T1 construct: start methionine (N); made in house; host or cells: E. coli BL21(DE3) RIL
T1 sequence (P14780 with tags, fused parts or gaps DEL216-390): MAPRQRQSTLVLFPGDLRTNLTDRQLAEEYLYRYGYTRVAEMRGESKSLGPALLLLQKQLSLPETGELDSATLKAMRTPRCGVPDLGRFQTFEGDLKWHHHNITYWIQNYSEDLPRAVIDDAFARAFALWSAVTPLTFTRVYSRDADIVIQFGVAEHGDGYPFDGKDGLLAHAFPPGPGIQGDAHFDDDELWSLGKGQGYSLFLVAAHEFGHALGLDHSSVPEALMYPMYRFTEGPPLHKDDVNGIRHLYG
Procedure: (§1) The ThermoFluor® (TF) assay is a 384-well plate-based binding assay that measures thermal stability of proteins (Biomol Screen 2001, 6, 429-40; Biochemistry 2005, 44, 5258-66). The experiments were carried out using instruments available from Johnson & Johnson Pharmaceutical Research & Development, LLC. TF dye used in all experiments was […] (1,8-ANS) (Invitrogen: A-47).
(§2) Compounds were arranged in a pre-dispensed plate (Greiner Bio-one: 781280), wherein compounds were serially diluted in 100% DMSO across 11 columns within a series. Columns 12 and 24 were used as DMSO reference and contained no compound. For multiple compound concentration-response experiments, the compound aliquots (50 nL) were robotically predispensed directly into black 384-well polypropylene PCR microplates (Abgene: TF-0384/k) using a Cartesian Hummingbird liquid handler (DigiLab, Holliston, Mass.). Following compound dispense, protein and dye solutions were added to achieve the final assay volume of 3 μL. The assay solutions were overlayed with 1 μL of silicone oil (Fluka, type DC 200: 85411) to prevent evaporation.
(§3) Assay plates were robotically loaded onto a thermostatically controlled PCR-type thermal block and then heated from 40 to 90° C. at a ramp-rate of 1° C./min for all experiments. Fluorescence was measured by continuous illumination with UV light (Hamamatsu LC6) supplied via fiber optics and filtered through a band-pass filter (380-400 nm; >60D cutoff). Fluorescence emission of the entire 384-well plate was detected by measuring light intensity using a CCD camera (Sensys, Roper Scientific) filtered to detect 500±25 nm, resulting in simultaneous and independent readings of all 384 wells. A single image with 20-sec exposure time was collected at each temperature, and the sum of the pixel intensity in a given area of the assay plate was recorded vs temperature and fit to standard equations to yield the Tm (J Biomol Screen 2001, 6, 429-40).
(§4) Thermodynamic parameters necessary for fitting compound binding for each proMMP were estimated by differential scanning calorimetry (DSC) and from ThermoFluor® data. The heat capacity of unfolding for each protein was estimated from the molecular weight and from ThermoFluor® dosing data.
ThermoFluor® with proMMP9(20-445; ΔFnII (SEQ ID NO:6)
The protein sample preparations included a desalting buffer exchange step via a PD-10 gravity column (GE Healthcare). The desalting buffer exchange was performed prior to diluting the protein to the final assay concentration of 2.8 μM proMMP9(20-445;ΔFnII) (SEQ ID NO:6). The concentration of proMMP9(20-445;ΔFnII) (SEQ ID NO:6) was determined spectrophotometrically based on a calculated extinction coefficient of ε280=39880 M^−1 cm^−1, a calculated molecular weight of 28.2 kDa, and calculated pI of 5.5. ThermoFluor® reference conditions were define as follows: 80 μg/mL (2.8 μM) proMMP9(20-445;ΔFnII) (SEQ ID NO:6), 50 μM 1,8-ANS, pH 7.0 Buffer (50 mM HEPES pH 7.0, 100 mM NaCl, 0.001% Tween-20, 2.5 mM MgCl2, 300 μM CaCl2). The thermodynamic parameters for proMMP9(20-445;ΔFnII) (SEQ ID NO:6) are as follows: Tm (° C.)=72 (+/−0.1), ΔUH(Tm) (cal mol^−1)=160000(+/−5000), ΔUSTm (cal mol^−1 K^−1)=434, ΔUCp (cal mol^−1 K^−1)=2400.

[2] = molecular target: T2, proMMP9(67-444;ΔFnII) (SEQ ID NO:5) (Homo sapiens, UniProt P14780, DEL216-390); test: ThermoFluor binding assay with proMMP9(67-444;ΔFnII)
T2 construct: start methionine (N); made in house; host or cells: E. coli BL21(DE3) RIL
T2 sequence (P14780 with tags, fused parts or gaps DEL216-390): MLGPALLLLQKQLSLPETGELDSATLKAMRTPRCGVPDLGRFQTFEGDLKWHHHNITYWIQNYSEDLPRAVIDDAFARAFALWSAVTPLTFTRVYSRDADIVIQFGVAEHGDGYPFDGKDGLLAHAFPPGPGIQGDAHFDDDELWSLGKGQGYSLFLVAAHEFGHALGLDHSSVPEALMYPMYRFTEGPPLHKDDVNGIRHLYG
Procedure: as §1, §2, §3, §4
ThermoFluor® with proMMP9(67-444;ΔFnM (SEQ ID NO:5)
The protein sample preparations had to include a desalting buffer exchange step via a PD-10 gravity column (GE Healthcare). The desalting buffer exchange was performed prior to diluting the protein to the final assay concentration of 3.5 μM proMMP9(67-444;ΔFnII) (SEQ ID NO:5). The concentration of proMMP9(67-444;ΔFnII) (SEQ ID NO:5) was determined spectrophotometrically based on a calculated extinction coefficient of ε280=33900 M^−1 cm^−1, a calculated molecular weight of 22.6 kDa, and calculated pI of 5.20. ThermoFluor® reference conditions were defined as follows: 80 μg/mL (3.5 μM) proMMP9(67-444;ΔFnII) (SEQ ID NO:5), 50 μM 1,8-ANS, pH 7.0 Buffer (50 mM HEPES pH 7.0, 100 mM NaCl, 0.001% Tween-20, 2.5 mM MgCl2, 300 μM CaCl2). The thermodynamic parameters for proMMP9(67-444;ΔFnII) (SEQ ID NO:5) are as follows: Tm (° C.)=63 (+/−0.1), ΔUH(Tm)(cal mol^−1)=105000(+/−5000), ΔUS(Tm) (cal mol^−1 K^−1)=450, ΔUCp (cal mol^−1 K^−1)=2000.

[3] = molecular target: T3, full-length proMMP9(1-707) activation by catalytic MMP3 (Homo sapiens, UniProt P14780, R574P); test: proMMP9/MMP3 P126 Activation Assay; format: biochemical
T3 construct: made in house; host or cells: proMMP9: HEK293 (secreted); MMP3: E. coli
T3 sequence (P14780 20-707 R574P): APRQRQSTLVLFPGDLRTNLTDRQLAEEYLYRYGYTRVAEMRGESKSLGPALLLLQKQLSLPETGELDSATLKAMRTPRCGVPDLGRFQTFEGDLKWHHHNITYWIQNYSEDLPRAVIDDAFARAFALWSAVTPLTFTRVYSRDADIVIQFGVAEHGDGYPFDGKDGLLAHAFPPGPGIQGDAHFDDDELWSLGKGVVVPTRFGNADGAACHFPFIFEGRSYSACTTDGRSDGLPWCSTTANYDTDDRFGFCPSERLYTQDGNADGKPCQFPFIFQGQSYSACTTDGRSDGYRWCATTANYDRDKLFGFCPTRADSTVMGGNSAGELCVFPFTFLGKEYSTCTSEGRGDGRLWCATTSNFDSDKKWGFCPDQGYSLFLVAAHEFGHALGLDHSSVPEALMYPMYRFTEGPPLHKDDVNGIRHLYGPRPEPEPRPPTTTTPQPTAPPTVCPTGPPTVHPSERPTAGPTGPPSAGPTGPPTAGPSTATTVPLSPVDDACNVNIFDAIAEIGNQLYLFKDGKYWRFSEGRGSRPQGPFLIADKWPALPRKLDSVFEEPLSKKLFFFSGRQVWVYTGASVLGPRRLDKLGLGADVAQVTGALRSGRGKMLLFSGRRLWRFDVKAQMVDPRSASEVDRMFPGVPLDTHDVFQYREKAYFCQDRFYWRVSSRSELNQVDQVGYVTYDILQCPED
Procedure: proMMP9/MMP3 P126 Activation Assay
The reaction volume was 50 μL. […] Reactivity of residual MMP3 towards P-126 substrate was minimal under these conditions.

SMILES	Kd [1]	Kd [2]	IC50 [3]
CCOP(=O)(OCC)c1ccc(OC)c(Nc2nc3c(ccc4c3ncn4C)s2)c1 [Example 66, [4-Methoxy-3-(6-methyl-6H-imidazo[4′,5′:3,4]benzo[2,1-d]thiazol-2-ylamino)-phenyl]-phosphonic acid diethyl ester.HCl]	5.9 µM	1.7 µM	2.3 µM
COc1ccc(P(=O)(O)O)cc1Nc1nc2c(ccc3c2ncn3C)s1 [Example 68, [4-Methoxy-3-(6-methyl-6H-imidazo[4′,5′:3,4]benzo[2,1-d]thiazol-2-ylamino)-phenyl]-phosphonic acid.HCl]	7.5 µM	12 µM	7.5 µM
Cn1cnc2c(Nc3nc4c(ccc5c4ncn5C)s3)cccc21 [Example 73, (1-Methyl-1H-benzoimidazol-4-yl)-(6-methyl-6H-imidazo[4′,5′:3,4]-benzo[2,1-d]thiazol-2-yl)-amine.HCl]	13 µM	7.5 µM	5.8 µM
COc1ncccc1Nc1nc2c(ccc3c2ncn3C)s1 [Example 74, (2-Methoxy-pyridin-3-yl)-(6-methyl-6H-imidazo[4′,5′:3,4]-benzo[2,1-d]thiazol-2-yl)-amine.HCl]	6 µM	3.7 µM	4.7 µM
Cn1cnc2c3nc(Nc4cccnc4)sc3ccc21 [Example 75, (6-Methyl-6H-imidazo[4′,5′:3,4]-benzo[2,1-d]thiazol-2-yl)-pyridin-3-yl-amine.HCl]	> 95 µM	15 µM	~18 µM
COc1ccc(Nc2nc3c(ccc4c3ncn4C)s2)c(OC)c1 [Example 78, (2,4-Dimethoxy-phenyl)-(6-methyl-6H-imidazo[4′,5′:3,4]-benzo[2,1-d]thiazol-2-yl)-amine.HCl]	10 µM	3.4 µM	4 µM
COc1ccc(N)cc1Nc1nc2c(ccc3c2ncn3C)s1 [Example 79, 4-Methoxy-N^3-(6-methyl-6H-imidazo[4′,5′:3,4]-benzo[2,1-d]thiazol-2-yl)-benzene-1,3-diamine.HCl]	3.2 µM	0.93 µM	0.39 µM
COc1ccc(S(=O)(=O)N2CCOCC2)cc1Nc1nc2c(ccc3c2ncn3C)s1 [Example 81, [2-Methoxy-5-(morpholine-4-sulfonyl)-phenyl]-(6-methyl-6H-imidazo[4′,5′:3,4]benzo[2,1-d]thiazol-2-yl)-amine.HCl]	5.2 µM	1.2 µM	0.75 µM

The remaining lines, values ahead:

Kd [1]	Kd [2]	IC50 [3]	SMILES
0.97 µM	0.9 µM	0.15 µM	Cn1cnc2c3nc(Nc4cc(S(N)(=O)=O)ccc4OC(F)(F)F)sc3ccc21 [Example 64, 3-(6-Methyl-6H-imidazo[4′,5′:3,4]benzo[2,1-d]thiazol-2-ylamino)-4-trifluoromethoxy-benzenesulfonamide.HCl]
0.077 µM	0.25 µM	0.15 µM	Cn1cnc2c3nc(Nc4cc(C(N)=O)ccc4OC(F)(F)F)sc3ccc21 [Example 65, 3-(6-Methyl-6H-imidazo[4′,5′:3,4]-benzo[2,1-d]thiazol-2-ylamino)-4-trifluoromethoxy-benzamide.HCl]
0.087 µM	0.077 µM	0.1 µM	COc1ccc(C#N)cc1Nc1nc2c(ccc3c2ncn3C)s1 [Example 67, 4-Methoxy-3-(6-methyl-6H-imidazo[4′,5′:3,4]benzo[2,1-d]thiazol-2-ylamino)-benzonitrile.HCl]
0.43 µM	0.22 µM	0.3 µM	COc1ccc(Br)cc1Nc1nc2c(ccc3c2ncn3C)s1 [Example 69, (5-Bromo-2-methoxy-phenyl)-(6-methyl-6H-imidazo[4′,5%3,4]benzo[2,1-d]thiazol-2-yl)-amine.HCl]
0.56 µM	0.12 µM	0.31 µM	COc1ccc(-c2cn[nH]c2)cc1Nc1nc2c(ccc3c2ncn3C)s1 [Example 70, [2-Methoxy-5-(1H-pyrazol-4-yl)-phenyl]-(6-methyl-6H-imidazo[4′,5%3,4]benzo[2,1-d]thiazol-2-yl)-amine.HCl]
2 µM	1.6 µM	1.5 µM	CCN(CC)S(=O)(=O)c1ccc(OC)c(Nc2nc3c(ccc4c3ncn4C)s2)c1 [Example 71, N,N-Diethyl-4-methoxy-3-(6-methyl-6H-imidazo[4′,5′:3,4]-benzo[2,1-d]thiazol-2-ylamino)-benzenesulfonamide.HCl]
2.1 µM	1.6 µM	0.46 µM	COc1ccc(S(=O)(=O)N2CCCC2)cc1Nc1nc2c(ccc3c2ncn3C)s1 [Example 72, [2-Methoxy-5-(pyrrolidine-1-sulfonyl)-phenyl]-(6-methyl-6H-imidazo[4′,5′:3,4]benzo[2,1-d]thiazol-2-yl)-amine.HCl]
0.53 µM	0.38 µM	0.1 µM	COc1ccc([N+](=O)[O-])cc1Nc1nc2c(ccc3c2ncn3C)s1 [Example 76, (2-Methoxy-5-nitro-phenyl)-(6-methyl-6H-imidazo[4′,5′:3,4]benzo[2,1-d]thiazol-2-yl)-amine.HCl]
3.2 µM	2.6 µM	1.1 µM	Cn1cnc2c3nc(Nc4ccccc4[N+](=O)[O-])sc3ccc21 [Example 77, (6-Methyl-6H-imidazo[4′,5′:3,4]-benzo[2,1-d]thiazol-2-yl)-(2-nitro-phenyl)-amine.HCl]
2.3 µM	0.96 µM	0.74 µM	COc1ccc(S(=O)(=O)N2CCCCC2)cc1Nc1nc2c(ccc3c2ncn3C)s1 [Example 80, [2-Methoxy-5-(piperidine-1-sulfonyl)-phenyl]-(6-methyl-6H-imidazo[4′,5′:3,4]-benzo[2,1-d]thiazol-2-yl)-amine.HCl]
